Active and inactive are the calls of the source. The rule behind the calls is not given here.

The values below come from ChEMBL document CHEMBL6177984, “Pyrazolo[1,5-a]pyrimidine-Based Type-I Photosensitizer as an Efficient Pyroptosis Inducer for Tumor Ablation” (J Med Chem, 2025).

For series [1], the system named is MDA-MB-231. Description: Induction of ROS production in human MDA-MB-231 cells assessed as increase in intracellular OH level at 0.3 uM preincubated with compound for 1 hr followed by light irradiation with 400 to 700 nm 100 mW/cm2 for 10 mins by HPF fluorescent probe based flow cytometry. It is filed as functional, cell-based. As to conditions: time 70.0 min.

For series [2], the system named is MDA-MB-231. The experiment in a line: Photocytotoxicity in human MDA-MB-231 cells assessed as cell viability preincubated with compound for 1 hr followed by light irradiated with 400 to 700 nm 100 mW/cm^2 for 10 mins and measured after 24 hrs by CCK-8 assay. The series is classed as functional, cell-based. As to conditions: MDA-MB-231, light or radiation study.

For series [3], the system named is MDA-MB-231. Description: Photocytotoxicity in human MDA-MB-231 cells assessed as cell viability at 1 uM preincubated with compound for 1 hr followed by light irradiated with 400 to 700 nm 100 mW/cm^2 for 10 mins and measured after 24 hrs by CCK-8 assay. The series is classed as functional, cell-based. As to conditions: time 1510.0 min. A general note: Tetrazolium assays rely on reduction of a dye to a coloured formazan, in cell work by metabolically active cells.

A short description of series [4]: Dark cytotoxicity against human MDA-MB-231 cells assessed as cell viability incubated for 24 hrs by CCK8 assay. It is filed as toxicity, cell-based.

Take `O=S(=O)(O)c1cc(O)c(O)c(S(=O)(=O)O)c1`: the outcome in series [1] was Active.
By IC50 is commonly meant the concentration needed to halve the response being measured. For `CC[N+]1=C(/C=C/c2ccc(-c3cnn4ccc(N5CCOCC5)nc34)s2)C(C)(C)c2cc(I)ccc21`, the IC50 in series [2] was found to be 280 nM. In series [3], the result was Active. Also, in series [4], the IC50 at 24 h is above 10 µM.
